Experimental data taken from ChEMBL document CHEMBL5247584, “Design, synthesis and evaluation of fused hybrids with acetylcholinesterase inhibiting and Nrf2 activating functions for Alzheimer's disease” (Eur J Med Chem, 2022).
Active and inactive are the calls of the source. The calls are words filed in the database; no cut-off is given here.

B1: Acetylcholinesterase (Homo sapiens), P22303 (protein)
chain: MRPPQCLLHTPSLASPLLLLLLWLLGGGVGAEGREDAELLVTVRGGRLRGIRLKTPGGPVSAFLGIPFAEPPMGPRRFLPPEPKQPWSGVVDATTFQSVCYQYVDTLYPGFEGTEMWNPNRELSEDCLYLNVWTPYPRPTSPTPVLVWIYGGGFYSGASSLDVYDGRFLVQAERTVLVSMNYRVGAFGFLALPGSREAPGNVGLLDQRLALQWVQENVAAFGGDPTSVTLFGESAGAASVGMHLLSPPSRGLFHRAVLQSGAPNGPWATVGMGEARRRATQLAHLVGCPPGGTGGNDTELVACLRTRPAQVLVNHEWHVLPQESVFRFSFVPVVDGDFLSDTPEALINAGDFHGLQVLVGVVKDEGSYFLVYGAPGFSKDNESLISRAEFLAGVRVGVPQVSDLAAEAVVLHYTDWLHPEDPARLREALSDVVGDHNVVCPVAQLAGRLAAQGARVYAYVFEHRASTLSWPLWMGVPHGYEIEFIFGIPLDPSRNYTAEEKIFAQRLMRYWANFARTGDPNEPRDPKAPQWPPYTAGAQQYVSLDLRPLEVRRGLRAQACAFWNRFLPKLLSATDTLDEAERQWKAEFHRWSSYMVHWKNQFDHYSKQDRCSDL

Tests used:
Cholinesterase = Cholinesterase (Equus caballus, UniProt P81908); assay: Inhibition of equine serum BuChE using ATC and BTC iodide as substrate preincubated for 5 mins followed by substrate addition and measured after 2 mins by DTNB reagent based assay
Cholinesterase, sequence (P81908 whole entry): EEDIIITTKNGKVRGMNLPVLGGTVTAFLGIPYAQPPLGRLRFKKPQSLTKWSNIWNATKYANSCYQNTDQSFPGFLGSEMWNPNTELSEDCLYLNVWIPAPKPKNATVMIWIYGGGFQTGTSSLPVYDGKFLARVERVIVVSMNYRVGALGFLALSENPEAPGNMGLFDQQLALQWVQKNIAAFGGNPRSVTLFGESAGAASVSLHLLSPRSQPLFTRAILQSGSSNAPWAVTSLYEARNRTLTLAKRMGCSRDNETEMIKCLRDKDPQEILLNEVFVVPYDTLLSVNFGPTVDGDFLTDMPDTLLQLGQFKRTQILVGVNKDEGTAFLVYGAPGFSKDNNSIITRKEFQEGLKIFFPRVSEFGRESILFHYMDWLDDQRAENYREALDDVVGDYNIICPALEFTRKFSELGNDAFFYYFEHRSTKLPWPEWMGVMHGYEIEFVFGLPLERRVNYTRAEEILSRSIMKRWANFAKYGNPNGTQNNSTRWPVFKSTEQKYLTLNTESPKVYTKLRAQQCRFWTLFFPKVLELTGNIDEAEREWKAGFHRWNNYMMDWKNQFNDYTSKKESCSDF

HepG2-ARE-C8 [1] = assay: Cytotoxicity against human HepG2-ARE-C8 cells assessed as reduction in cell viability at 5 and 20 uM measured for 24 hrs by MTT assay; format: functional, cell-based
Acetylcholinesterase [2] = molecular target: Acetylcholinesterase (Electrophorus electricus, UniProt O42275); assay: Inhibition of electric eel AChE using ATC and BTC iodide as substrate preincubated for 5 mins followed by substrate addition and measured after 2 mins by DTNB reagent based assay
Acetylcholinesterase (Electrophorus electricus, UniProt O42275), sequence (O42275 whole entry): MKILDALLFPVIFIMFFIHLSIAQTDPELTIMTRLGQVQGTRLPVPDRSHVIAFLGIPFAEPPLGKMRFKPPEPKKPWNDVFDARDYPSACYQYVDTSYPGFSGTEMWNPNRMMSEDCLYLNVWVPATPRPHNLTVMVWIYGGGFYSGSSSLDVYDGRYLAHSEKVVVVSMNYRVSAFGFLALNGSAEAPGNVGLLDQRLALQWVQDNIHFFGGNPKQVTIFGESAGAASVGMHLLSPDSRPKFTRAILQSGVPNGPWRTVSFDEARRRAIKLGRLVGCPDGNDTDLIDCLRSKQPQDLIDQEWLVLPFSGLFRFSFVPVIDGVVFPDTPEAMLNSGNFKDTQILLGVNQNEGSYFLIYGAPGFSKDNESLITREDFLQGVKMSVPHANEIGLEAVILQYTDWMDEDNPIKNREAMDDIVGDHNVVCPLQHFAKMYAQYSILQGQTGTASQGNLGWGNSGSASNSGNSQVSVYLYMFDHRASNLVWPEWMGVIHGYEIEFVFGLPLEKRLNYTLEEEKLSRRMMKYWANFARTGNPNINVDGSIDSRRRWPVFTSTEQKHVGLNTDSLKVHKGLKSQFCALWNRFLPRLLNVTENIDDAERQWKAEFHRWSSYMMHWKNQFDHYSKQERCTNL

HepG2-ARE-C8 [3] = assay: Activation of Nrf2-ARE pathway in human HepG2-ARE-C8 cells at 20 uM measured for 24 hrs by ARE-luciferase assay; format: cell-based; details: filed as activator
Acetylcholinesterase [4] = molecular target: Acetylcholinesterase (Homo sapiens, UniProt P22303); assay: Inhibition of human AChE using ATC and BTC iodide as substrate preincubated for 5 mins followed by substrate addition and measured after 2 mins by DTNB reagent based assay
Mus musculus [5] = assay: Cognitive enhancing effect in amyloid beta (1 to 42)-induced ICR mouse model assessed as increase in ACh level at 20 mg/kg […] in presence of donepezil by ELISA; format: functional, organism-based
Mus musculus [6] = assay: Antialzheimer activity against Abeta1-42-induced cognitive impairment ICR mouse model assessed as increase in distance to reach target at 10 mg/kg, IG administered for 3 to 14 days and measured after 9 to 14 days in presence of donepezil by Morris water maze test; format: functional, organism-based; details: time 9-14 day
Mus musculus [7] = assay: Antialzheimer activity against Abeta1-42-induced cognitive impairment ICR mouse model assessed as confuse escape tracks at 10 mg/kg, IG administered for 3 to 14 days and measured after 9 to 14 days in presence of donepezil by Morris water maze test; format: functional, organism-based; details: time 9-14 day
Mus musculus [8] = assay: Antialzheimer activity against Abeta1-42-induced cognitive impairment ICR mouse model assessed as increase in escape latency at 10 mg/kg, IG administered for 3 to 14 days and measured after 9 to 14 days in presence of donepezil by Morris water maze test; format: functional, organism-based; details: time 9-14 day
Mus musculus [9] = assay: Antialzheimer activity against Abeta1-42-induced cognitive impairment ICR mouse model assessed as increase in arrival time at 10 mg/kg, IG administered for 3 to 14 days and measured after 9 to 14 days in presence of donepezil by Morris water maze test; format: functional, organism-based; details: time 9-14 day
[10] = compound: Cc1ccc(-c2noc(-c3cccc(OCC4CCN(Cc5cccc(F)c5)CC4)c3)n2)cn1; assay: Non-competitive inhibition of human AChE assessed as decrease in substrate Vmax with constant Km by Lineweaver-Burk plot analysis

Molecule | IC50 (Cholinesterase) [µM] | Activity (HepG2-ARE-C8 [1]) | IC50 (Acetylcholinesterase [2]) [µM] | other results
Cc1ccc(-c2noc(-c3cccc(OCC4CCN(Cc5ccccn5)CC4)c3)n2)cn1 | 5.03 | inactive | 1.92 | 
Cc1ccc(-c2noc(-c3cccc(OCC4CCN(Cc5ccc(Br)cc5)CC4)c3)n2)cn1 | > 100 | inactive | > 100 | 
Cc1ccc(-c2noc(-c3cccc(OCC4CCCN(C(=O)c5ccccc5)C4)c3)n2)cn1 (configuration not stated) | 13.8 | inactive | 15.9 | Activity (HepG2-ARE-C8 [3]): Active
Cc1ccc(-c2noc(-c3cccc(OCC4CCN(Cc5ccc(C(F)(F)F)cc5)CC4)c3)n2)cn1 | > 100 | inactive | > 100 | Activity (HepG2-ARE-C8 [3]): Active
Cc1ccc(-c2noc(-c3cccc(OCC4CCN(Cc5ccc(Cl)cc5)CC4)c3)n2)cn1 | > 100 | inactive | > 100 | 
Cc1ccc(-c2noc(-c3cccc(OCC4CCCN(Cc5ccccc5F)C4)c3)n2)cn1 (configuration not stated) | 17.6 | inactive | 8.14 | 
Cc1ccc(-c2noc(-c3cccc(OCC4CCN(Cc5cccc(Cl)c5)CC4)c3)n2)cn1 | > 100 | inactive | 2.29 | 
Cc1ccc(CN2CCC(COc3cccc(-c4nc(-c5ccc(C)nc5)no4)c3)CC2)cc1 | 6.34 | inactive | > 100 | 
Cc1ccc(-c2noc(-c3cccc(OCC4CCN(Cc5ccc(Cl)o5)CC4)c3)n2)cn1 | > 100 | inactive | 2 | 
Cc1ccc(-c2noc(-c3cccc(OCC4CCN(Cc5ccccc5Cl)CC4)c3)n2)cn1 | > 100 | inactive | 0.55 | IC50 (Acetylcholinesterase [4]): 0.57 µM
Cc1ccc(-c2noc(-c3cccc(OCC4CCCN(C(=O)c5ccc(F)cc5)C4)c3)n2)cn1 (configuration not stated) | 5.78 | inactive | 4.37 | 
Cc1ccc(-c2noc(-c3cccc(OCC4CCN(Cc5ccc(Br)o5)CC4)c3)n2)cn1 | > 100 | inactive | 3.18 | 
Cc1ccc(-c2noc(-c3cccc(OCC4CCN(C(=O)c5ccc(F)cc5)CC4)c3)n2)cn1 | > 100 | inactive | > 100 | 
Cc1ccc(-c2noc(-c3cccc(OCC4CCCN(Cc5ccc(F)cc5)C4)c3)n2)cn1 (configuration not stated) | 4.28 | inactive | > 100 | 
Cc1ccc(-c2noc(-c3cccc(OCC4CCN(Cc5ccc(C#N)cc5)CC4)c3)n2)cn1 | > 100 | inactive | 71.4 | 
Cc1ccc(-c2noc(-c3cccc(OCC4CCN(Cc5ccc(C)c(C)c5)CC4)c3)n2)cn1 | > 100 | inactive | 5.64 | 
COc1ccc(CN2CCC(COc3cccc(-c4nc(-c5ccc(C)nc5)no4)c3)CC2)cc1 | > 100 | inactive | > 100 | 
Cc1ccc(-c2noc(-c3cccc(OCC4CCN(Cc5ccccc5)CC4)c3)n2)cn1 | 5.05 | inactive | 0.29 | IC50 (Acetylcholinesterase [4]): 0.74 µM
Cc1ccc(-c2noc(-c3cccc(OCC4CCN(Cc5ccc(F)c(F)c5)CC4)c3)n2)cn1 | 1.66 | inactive | 13.9 | 
Cc1ccc(-c2noc(-c3cccc(OCC4CCN(Cc5cccnc5)CC4)c3)n2)cn1 | 3.93 | inactive | 1.28 | 
Cc1ccc(-c2noc(-c3cccc(OCC4CCN(Cc5ccncc5)CC4)c3)n2)cn1 | > 100 | inactive | 16.8 | 
Cc1ccc(-c2noc(-c3cccc(OCC4CCN(Cc5ccccc5F)CC4)c3)n2)cn1 | 15.5 | inactive | 0.1 | IC50 (Acetylcholinesterase [4]): 0.29 µM
Cc1ccc(-c2noc(-c3ccc(F)c(F)c3)n2)cn1 |  |  |  | Activity (Mus musculus [5]): Active; Activity (Mus musculus [6]): Active; Activity (Mus musculus [7]): Active; Activity (Mus musculus [8]): Active; Activity (Mus musculus [9]): Active
Cc1ccc(CN2CCCC(COc3cccc(-c4nc(-c5ccc(C)nc5)no4)c3)C2)cc1 (configuration not stated) | > 100 | inactive | 5.39 | 
Cc1ccc(-c2noc(-c3cccc(OCC4CCN(Cc5ccc(F)cc5)CC4)c3)n2)cn1 | 1.36 | inactive | 0.56 | IC50 (Acetylcholinesterase [4]): 2.99 µM
Cc1ccc(-c2noc(-c3cccc(OCC4CCN(Cc5ccco5)CC4)c3)n2)cn1 | > 100 | inactive | 2.53 | 
Cc1ccc(-c2noc(-c3cccc(OCC4CCN(Cc5ccc(C(C)(C)C)cc5)CC4)c3)n2)cn1 | > 100 | inactive | > 100 | Activity (HepG2-ARE-C8 [3]): Active
Cc1ccc(-c2noc(-c3cccc(OCC4CCCN(Cc5ccccc5)C4)c3)n2)cn1 (configuration not stated) | 2.78 | inactive | 6.46 | 
Cc1ccc(-c2noc(-c3cccc(OCC4CCN(C(=O)c5ccccc5)CC4)c3)n2)cn1 | > 100 | inactive | 59.4 | 
B1 |  |  |  | Km [10]: 0.233 µM
